In patent US20060110333A1 (priority 2002, published 2006):

Assay: Plasma buprenorphine concentration after single administration (LC-MS/MS)
Conditions: 0.1 mg/kg in terms of buprenorphine, cynomolgus monkey

SMILES: CO[C@@]12CC[C@@]3(C[C@@H]1[C@](C)(O)C(C)(C)C)[C@H]1Cc4ccc(O)c5c4[C@@]3(CCN1CC1CC1)[C@H]2O5.Cl [Comparative Example 2, buprenorphine hydrochloride]
- Plasma buprenorphine concentration (0 min, mean ± SD, intravenous): 0 ng/mL
- Plasma buprenorphine concentration (10 min, Animal 1, intravenous): 41.40 ng/mL
- Plasma buprenorphine concentration (10 min, Animal 2, intravenous): 32.16 ng/mL
- Plasma buprenorphine concentration (10 min, Animal 3, intravenous): 41.33 ng/mL
- Plasma buprenorphine concentration (10 min, mean ± SD, intravenous): 38.30 ± 5.31 ng/mL
- Plasma buprenorphine concentration (30 min, Animal 1, intravenous): 32.83 ng/mL
- Plasma buprenorphine concentration (30 min, Animal 2, intravenous): 18.02 ng/mL
- Plasma buprenorphine concentration (30 min, Animal 3, intravenous): 33.53 ng/mL
- Plasma buprenorphine concentration (30 min, mean ± SD, intravenous): 28.12 ± 8.76 ng/mL
- Plasma buprenorphine concentration (60 min, Animal 1, intravenous): 16.85 ng/mL
- Plasma buprenorphine concentration (60 min, Animal 2, intravenous): 16.45 ng/mL
- Plasma buprenorphine concentration (60 min, Animal 3, intravenous): 26.51 ng/mL
- Plasma buprenorphine concentration (60 min, mean ± SD, intravenous): 19.94 ± 5.70 ng/mL
- Plasma buprenorphine concentration (120 min, Animal 1, intravenous): 8.27 ng/mL
- Plasma buprenorphine concentration (120 min, Animal 2, intravenous): 9.34 ng/mL
- Plasma buprenorphine concentration (120 min, Animal 3, intravenous): 16.13 ng/mL
- Plasma buprenorphine concentration (120 min, mean ± SD, intravenous): 11.25 ± 4.26 ng/mL
- Plasma buprenorphine concentration (240 min, Animal 1, intravenous): 3.78 ng/mL
- Plasma buprenorphine concentration (240 min, Animal 2, intravenous): 4.55 ng/mL
- Plasma buprenorphine concentration (240 min, Animal 3, intravenous): 7.05 ng/mL
- Plasma buprenorphine concentration (240 min, mean ± SD, intravenous): 5.13 ± 1.71 ng/mL
- Plasma buprenorphine concentration (480 min, Animal 1, intravenous): 1.46 ng/mL
- Plasma buprenorphine concentration (480 min, Animal 2, intravenous): 0.97 ng/mL
- Plasma buprenorphine concentration (480 min, Animal 3, intravenous): 2.00 ng/mL
- Plasma buprenorphine concentration (480 min, mean ± SD, intravenous): 1.48 ± 0.52 ng/mL
